pIC50: −log10 of the molar value. One block for each compound: values may come before it. Calls of active or inactive are those of the source. No cut-off for these calls is given here. Positions of bridges follow the written chain, without caps; N, C: chain ends. Non-standard residues stand in square brackets, D forms with d. Residues, ends and D or L forms follow the SMILES beside them. *: point of attachment. X1 = O=C(OCCCS*)Oc1ccc2nc(C3=N[C@@H](C(=O)O)CS3)sc2c1; Nle = CCCC[C@H](N)C(=O)O
Assays:
Mino [1] = assay: Antimigratory activity against human Mino cells assessed as inhibition of S1P stimulated cell migration at 1.1 uM measured after 30 mins by Cell-titer Glo assay; type: functional, cell-based
[2] = (§1) Antimigratory activity against human Mino cells assessed as inhibition of S1P stimulated cell migration at 10 uM measured after 30 mins by Cell-titer Glo assay relative to control; type: functional; conditions: 0.5 h
[3] = target: T1, Dedicator of cytokinesis protein 2 (Homo sapiens, UniProt Q92608); assay: Inhibition of Rac1 binding to biotinylated DOCK2 (unknown origin) by ELISA
T1 sequence (Q92608 whole entry): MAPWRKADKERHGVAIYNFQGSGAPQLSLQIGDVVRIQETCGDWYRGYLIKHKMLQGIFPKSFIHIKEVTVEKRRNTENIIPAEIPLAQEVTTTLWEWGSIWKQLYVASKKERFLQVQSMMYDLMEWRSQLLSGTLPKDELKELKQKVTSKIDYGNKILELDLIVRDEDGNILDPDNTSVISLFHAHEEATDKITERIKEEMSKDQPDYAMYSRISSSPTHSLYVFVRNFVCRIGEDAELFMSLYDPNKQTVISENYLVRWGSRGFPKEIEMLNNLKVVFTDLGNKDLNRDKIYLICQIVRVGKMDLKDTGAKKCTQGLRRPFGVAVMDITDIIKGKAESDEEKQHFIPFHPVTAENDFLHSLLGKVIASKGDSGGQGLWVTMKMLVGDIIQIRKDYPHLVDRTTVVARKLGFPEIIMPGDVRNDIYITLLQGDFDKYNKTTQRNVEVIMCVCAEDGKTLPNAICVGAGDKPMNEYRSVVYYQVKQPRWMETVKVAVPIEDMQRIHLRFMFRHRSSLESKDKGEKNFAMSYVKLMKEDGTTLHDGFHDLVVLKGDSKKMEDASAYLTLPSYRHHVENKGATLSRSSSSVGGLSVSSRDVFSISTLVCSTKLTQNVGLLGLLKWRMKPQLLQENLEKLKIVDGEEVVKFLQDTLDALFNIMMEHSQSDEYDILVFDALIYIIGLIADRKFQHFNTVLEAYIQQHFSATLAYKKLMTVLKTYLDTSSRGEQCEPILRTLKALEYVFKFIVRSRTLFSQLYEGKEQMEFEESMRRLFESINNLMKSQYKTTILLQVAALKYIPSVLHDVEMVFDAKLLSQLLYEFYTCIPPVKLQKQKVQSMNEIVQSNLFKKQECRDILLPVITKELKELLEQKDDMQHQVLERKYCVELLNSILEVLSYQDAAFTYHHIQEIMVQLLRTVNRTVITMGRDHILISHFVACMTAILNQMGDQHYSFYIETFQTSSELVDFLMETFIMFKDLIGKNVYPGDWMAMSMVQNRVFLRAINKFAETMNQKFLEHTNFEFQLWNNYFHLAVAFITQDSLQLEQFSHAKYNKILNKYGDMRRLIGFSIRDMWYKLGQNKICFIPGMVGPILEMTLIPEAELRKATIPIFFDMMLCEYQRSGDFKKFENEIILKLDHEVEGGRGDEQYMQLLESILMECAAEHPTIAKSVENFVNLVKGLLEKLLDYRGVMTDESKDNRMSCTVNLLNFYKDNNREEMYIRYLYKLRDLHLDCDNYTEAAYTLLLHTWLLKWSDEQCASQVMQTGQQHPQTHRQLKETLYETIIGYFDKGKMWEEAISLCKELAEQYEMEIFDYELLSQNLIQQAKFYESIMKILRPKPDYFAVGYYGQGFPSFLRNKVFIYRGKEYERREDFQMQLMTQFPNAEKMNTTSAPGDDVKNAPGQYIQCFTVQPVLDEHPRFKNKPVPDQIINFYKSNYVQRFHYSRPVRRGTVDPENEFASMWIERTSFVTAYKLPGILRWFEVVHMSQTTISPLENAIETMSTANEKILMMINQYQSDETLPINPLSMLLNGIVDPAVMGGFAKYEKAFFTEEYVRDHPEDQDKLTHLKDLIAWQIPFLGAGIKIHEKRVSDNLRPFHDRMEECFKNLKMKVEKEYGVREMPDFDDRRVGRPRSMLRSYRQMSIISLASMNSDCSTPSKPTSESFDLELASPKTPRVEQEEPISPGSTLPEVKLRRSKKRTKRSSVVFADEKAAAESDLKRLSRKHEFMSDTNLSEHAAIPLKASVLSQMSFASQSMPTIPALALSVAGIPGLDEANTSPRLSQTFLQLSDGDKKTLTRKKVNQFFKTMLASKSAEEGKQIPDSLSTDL

[4] = (§2) Antimigratory activity against human Mino cells assessed as inhibition of S1P stimulated cell migration at 3.3 uM measured after 30 mins by Cell-titer Glo assay relative to control; type: functional; conditions: 0.5 h
Mino [5] = assay: as §1; type: functional
[6] = target: T1, Dedicator of cytokinesis protein 2; assay: Inhibition of GST-fused Rac1 (unknown origin) binding to recombinant N-terminal trigger factor/C-terminal SBP-tagged DOCK2 DHR-2 binding domain (unknown origin) expressed in mammalian cells assessed as reduction in Rac GEF activity pretreated for 1 hr followed by GST-fused Rac1 addition after 1 hr by ELISA; type: cell-based
[7] = target: T1, Dedicator of cytokinesis protein 2; assay: Inhibition of DOCK2 (unknown origin) GEF activity
[8] = target: T1, Dedicator of cytokinesis protein 2; assay: Inhibition of Rac1 binding to DOCK2 (unknown origin) by ELISA
Mino [9] = assay: as §2; type: functional
[10] = Drug uptake in HEK293T cells expressing luciferase reporter gene at 50 uM measured every 3 mins for 60 mins by luminescence assay relative to 50 uM luciferin; type: ADME, cell-based; conditions: human, hek-293t, 1 h
[11] = Cytotoxicity against HEK293T cells assessed as cell viability at 50 uM by CellTiter-Glo assay relative to control; conditions: human
in vitro [12] = conditions: human, HEK293T cells
Description: Cytotoxicity against HEK293T cells assessed as cell viability at 6.3 uM by CellTiter-Glo assay relative to control

in vitro [13] = conditions: human, HEK293T cells; remark: listed apart in the source
Description: Cytotoxicity against HEK293T cells assessed as cell viability at 12.5 uM by CellTiter-Glo assay relative to control

in vitro [14] = conditions: human, HEK293T cells; remark: listed apart in the source
Description: Cytotoxicity against HEK293T cells assessed as cell viability at 25 uM by CellTiter-Glo assay relative to control

SMILES: CC(=O)N[C@H]1CSSC[C@@H](C(=O)N[C@@H](CCCNC(=N)N)C(=O)N[C@@H](CCCNC(=N)N)C(=O)N[C@@H](CCCNC(=N)N)C(N)=O)NC(=O)[C@H](Cc2c[nH]c3ccccc23)NC(=O)[C@@H]2CCCN2C(=O)[C@H](Cc2ccc(O)cc2)NC(=O)CNC(=O)[C@H](Cc2cnc[nH]2)NC(=O)[C@H](Cc2ccc(O)cc2)NC(=O)[C@H](CCCCN)NC(=O)[C@H](C)NC(=O)[C@H](C(C)C)NC1=O (Ac-CVAKYHGYPWCRRR-NH2; disulfide 1-11)
inhibition (Mino [1]): Active
inhibition (Mino [5]): Active
pIC50 [3]: 7.96

SMILES: O=C1NN(c2ccccc2)C(=O)/C1=C/C=C/c1ccccc1Cl
pIC50 [6]: 4.64

SMILES: CC(C)C[C@H](N)C(=O)N[C@@H](CC(N)=O)C(=O)N[C@@H](CCCNC(=N)N)C(=O)N[C@H]1CSSC[C@@H](C(=O)N[C@@H](CCCNC(=N)N)C(=O)N[C@@H](CCCNC(=N)N)C(=O)N[C@@H](CCCNC(=N)N)C(=O)O)NC(=O)[C@H](Cc2c[nH]c3ccccc23)NC(=O)[C@@H]2CCCN2C(=O)[C@H](Cc2ccc(O)cc2)NC(=O)CNC(=O)[C@H](Cc2cnc[nH]2)NC(=O)[C@H](Cc2ccc(O)cc2)NC(=O)[C@H](CCCCN)NC(=O)[C@H](C)NC(=O)[C@H](C(C)C)NC1=O (H-LNRCVAKYHGYPWCRRR-OH; disulfide 4-14)
pIC50 [7]: 7.46
pIC50 [8]: 8.22

SMILES: CC(=O)N[C@@H](CSSCCCOC(=O)Oc1ccc2nc(C3=N[C@@H](C(=O)O)CS3)sc2c1)C(=O)N[C@H]1CSSC[C@@H](C(=O)N[C@@H](CCCNC(=N)N)C(=O)N[C@@H](CCCNC(=N)N)C(=O)N[C@@H](CCCNC(=N)N)C(=O)N[C@@H](CCCNC(=N)N)C(=O)N[C@@H](CCCNC(=N)N)C(=O)N[C@@H](CCCNC(=N)N)C(=O)N[C@@H](CCCNC(=N)N)C(=O)N[C@@H](CCCNC(=N)N)C(N)=O)NC(=O)[C@H](Cc2c[nH]c3ccccc23)NC(=O)[C@@H]2CCCN2C(=O)[C@H](Cc2ccc(O)cc2)NC(=O)CNC(=O)[C@H](Cc2cnc[nH]2)NC(=O)[C@H](Cc2ccc(O)cc2)NC(=O)[C@H](CCCCN)NC(=O)[C@H](C)NC(=O)[C@H](C(C)C)NC1=O (Ac-C(X1)CVAKYHGYPWCRRRRRRRR-NH2; disulfide 2-12)
fold change (FC) [10]: 61
viability at 50 µM [11]: 71.7%
viability at 6.3 µM (in vitro [12]): 108%
viability at 12.5 µM (in vitro [13]): 104%
viability at 25 µM (in vitro [14]): 99.7%

More lines, main results first:

pIC50 [3]: 7.51
SMILES: CC(=O)N[C@H]1CSSC[C@@H](C(=O)N[C@@H](CCCNC(=N)N)C(=O)N[C@@H](CCCNC(=N)N)C(=O)N[C@@H](CCCNC(=N)N)C(=O)N[C@H](C(=O)N[C@@H](CCCNC(=N)N)C(=O)N[C@H](C(=O)N[C@@H](CC(C)C)C(=O)N[C@@H](CCCCN)C(=O)N[C@@H](CCCNC(=N)N)C(=O)N[C@@H](Cc2c[nH]c3ccccc23)C(=O)N[C@@H](CCCCN)C(=O)N[C@@H](CC(C)C)C(=O)N[C@@H](Cc2ccccc2)C(N)=O)C(C)C)[C@@H](C)O)NC(=O)[C@H](Cc2c[nH]c3ccccc23)NC(=O)[C@@H]2CCCN2C(=O)[C@H](Cc2ccc(O)cc2)NC(=O)CNC(=O)[C@H](Cc2cnc[nH]2)NC(=O)[C@H](Cc2ccc(O)cc2)NC(=O)[C@H](CCCCN)NC(=O)[C@H](C)NC(=O)[C@H](C(C)C)NC1=O (Ac-CVAKYHGYPWCRRRTRVLKRWKLF-NH2; disulfide 1-11)
inhibition (Mino [1]): Active
inhibition at 10 µM [2]: > 89%
inhibition at 3.3 µM [4]: > 89%

pIC50 [3]: 8.10
SMILES: CC(=O)N[C@H]1CSSC[C@@H](C(=O)N[C@@H](CCCNC(=N)N)C(=O)N[C@@H](CCCNC(=N)N)C(=O)N[C@@H](CCCNC(=N)N)C(=O)N[C@@H](CCCNC(=N)N)C(=O)N[C@@H](CCCNC(=N)N)C(=O)N[C@@H](CCCNC(=N)N)C(=O)N[C@@H](CCCNC(=N)N)C(=O)N[C@@H](CCCNC(=N)N)C(N)=O)NC(=O)[C@H](Cc2c[nH]c3ccccc23)NC(=O)[C@@H]2CCCN2C(=O)[C@H](Cc2ccc(O)cc2)NC(=O)CNC(=O)[C@H](Cc2cnc[nH]2)NC(=O)[C@H](Cc2ccc(O)cc2)NC(=O)[C@H](CCCCN)NC(=O)[C@H](C)NC(=O)[C@H](C(C)C)NC1=O (Ac-CVAKYHGYPWCRRRRRRRR-NH2; disulfide 1-11)
inhibition (Mino [1]): Active
inhibition at 10 µM [2]: > 89%
inhibition at 3.3 µM [4]: > 89%

pIC50 [3]: 7.15
SMILES: CC(=O)N[C@H]1CSSC[C@@H](C(=O)N[C@@H](CCCNC(=N)N)C(=O)N[C@@H](CCCNC(=N)N)C(=O)N[C@@H](CCCNC(=N)N)C(=O)N[C@@H](C)C(=O)N[C@@H](CC(C)C)C(=O)N[C@@H](Cc2c[nH]c3ccccc23)C(=O)N[C@@H](CCCCN)C(=O)N[C@H](C(=O)N[C@@H](CC(C)C)C(=O)N[C@@H](CC(C)C)C(=O)N[C@@H](CCCCN)C(=O)N[C@@H](CCCCN)C(=O)N[C@H](C(=O)N[C@@H](CC(C)C)C(=O)N[C@@H](CCCCN)C(=O)N[C@@H](C)C(=O)N2CCC[C@H]2C(=O)N[C@@H](CCCCN)C(=O)N[C@@H](CCCCN)C(=O)N[C@@H](CCCCN)C(=O)N[C@@H](CCCNC(=N)N)C(=O)N[C@@H](CCCCN)C(=O)N[C@H](C(N)=O)C(C)C)C(C)C)[C@@H](C)O)NC(=O)[C@H](Cc2c[nH]c3ccccc23)NC(=O)[C@@H]2CCCN2C(=O)[C@H](Cc2ccc(O)cc2)NC(=O)CNC(=O)[C@H](Cc2cnc[nH]2)NC(=O)[C@H](Cc2ccc(O)cc2)NC(=O)[C@H](CCCCN)NC(=O)[C@H](C)NC(=O)[C@H](C(C)C)NC1=O (Ac-CVAKYHGYPWCRRRALWKTLLKKVLKAPKKKRKV-NH2; disulfide 1-11)
inhibition (Mino [1]): Active
inhibition (Mino [9]): Active

pIC50 [3]: 7.02
SMILES: CCCC[C@H](NC(=O)[C@H](CCCNC(=N)N)NC(=O)[C@H](CCCNC(=N)N)NC(=O)[C@H](CC(N)=O)NC(=O)[C@H](CCC(N)=O)NC(=O)[C@H](Cc1ccccc1)NC(=O)[C@H](Cc1c[nH]c2ccccc12)NC(=O)[C@@H](NC(=O)[C@H](CCCCN)NC(=O)[C@@H](NC(=O)[C@H](CCC(N)=O)NC(=O)[C@H](CCCNC(=N)N)NC(=O)[C@H](CCCNC(=N)N)NC(=O)[C@H](CCCNC(=N)N)NC(=O)[C@H](CCCNC(=N)N)NC(=O)[C@@H]1CSSC[C@H](NC(C)=O)C(=O)N[C@@H](C(C)C)C(=O)N[C@@H](C)C(=O)N[C@@H](CCCCN)C(=O)N[C@@H](Cc2ccc(O)cc2)C(=O)N[C@@H](Cc2cnc[nH]2)C(=O)NCC(=O)N[C@@H](Cc2ccc(O)cc2)C(=O)N2CCC[C@H]2C(=O)N[C@@H](Cc2c[nH]c3ccccc23)C(=O)N1)[C@@H](C)CC)[C@@H](C)CC)C(=O)N[C@@H](CCCCN)C(=O)N[C@@H](Cc1c[nH]c2ccccc12)C(=O)N[C@@H](CCCCN)C(=O)N[C@@H](CCCCN)C(N)=O (Ac-CVAKYHGYPWCRRRRQIKIWFQNRR[Nle]KWKK-NH2; disulfide 1-11)
inhibition (Mino [1]): Active
inhibition (Mino [9]): Active
